{"source": "paper PMC6815936", "about": "“A Pan-Cyclophilin Inhibitor, CRV431, Decreases Fibrosis and Tumor Development in Chronic Liver Disease Models” (The Journal of Pharmacology and Experimental Therapeutics, 2019)", "key": {"recombinant Cyp D (PPIF)": {"biological_target": "T1, recombinant Cyp D (PPIF) (Homo sapiens, UniProt P30405)", "T1 construct": "purchased Cedarlane Laboratories CLENZ385", "T1 sequence (P30405 30-207)": "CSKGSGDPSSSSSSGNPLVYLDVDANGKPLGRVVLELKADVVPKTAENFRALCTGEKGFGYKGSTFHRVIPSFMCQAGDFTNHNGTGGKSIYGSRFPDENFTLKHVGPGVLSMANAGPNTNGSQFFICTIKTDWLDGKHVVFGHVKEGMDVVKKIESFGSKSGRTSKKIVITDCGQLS", "test": "Cyclophilin isomerase assay, Cyp D", "type": "biochemical", "procedure": "Cyclophilin isomerase activity was measured with an assay described by [Kofron et al. (1991)] with adaptations to 96-well plates. In this assay cyclophilins catalyze cis-to-trans isomerization of a proline peptide bond in a nitroanalide-coupled peptide substrate followed by cleavage of the trans-conformer peptide by α-chymotrypsin, release of the p-nitroaniline chromogen, and quantitation of p-nitroaniline by absorbance at 410 nm. All solutions were pre-equilibrated, and all assays were conducted at 4°C. Plates were preloaded with 5 µl peptide solution consisting of N-succinyl-alanine-alanine-proline-phenylalanine-p-nitroanilide (S7388; Sigma-Aldrich) and 400 mM lithium chloride (310468; Sigma-Aldrich) in anhydrous trifluoroethanol (T63002; Sigma-Aldrich). […] Absorbance measurements with a BMG Polarstar Galaxy plate reader were begun immediately and made at 6-second intervals for 6 minutes. Reaction curves were represented by increases in optical density 410 nm as a function of reaction time. For Ki determinations, initial reaction velocities were obtained from the reaction curves and plotted relative to substrate concentration, and the curves were fitted to the enzyme competitive inhibition model (GraphPad Prism) to derive Ki, maximum velocity (Vmax), and Michaelis constant values. […]"}, "six human cell types": {"tested_on": "six human cell types", "test": "Cytotoxicity analysis, resazurin viability assay", "procedure": "CRV431 cytotoxicity was evaluated in cell culture with six human cell types: Jurkat E6.1 lymphocyte cell line (88042803, person; Sigma-Aldrich), HepaRG hepatocyte cell line (HPRGC10, person; Life Technologies), primary renal epithelial cells (CC-2556, unknown gender; Lonza), primary dermal fibroblasts (CC-2511, person; Lonza), primary bronchial smooth muscle cells (CC-2576, person; Lonza), and primary umbilical vein endothelial cells (CC-2519, person; Lonza). Jurkat cells (suspension cell type) were plated at 35,000 cells/well in 96-well plates. All other cell types (adherent cell types) were plated 2500–10,000 cells/well (adherent cell types) in GelCol bovine collagen-coated (5167; Advanced Biomatrix) 96-well Nunc Edge 2.0 evaporation barrier plates (14387223; Thermo Scientific). Cell culture medium and culture conditions followed suppliers’ recommendations. […] Cell viability was assessed at the end of the 3-day culture period using the In Vitro Toxicology Assay (Tox8-1KT; Sigma-Aldrich). In this assay the oxidoreduction indicator dye, resazurin, is colorometrically converted in proportion to the number of viable cells and measured by absorbance or fluorescence. Fluorescence was measured (excitation 540 nm; emission 590 nm) with a BMG Polarstar Galaxy Microplate Reader."}, "NTCP": {"biological_target": "T2, NTCP (Homo sapiens, UniProt Q14973)", "T2 construct": "expressed in transfected cells", "T2 sequence (Q14973 whole entry)": "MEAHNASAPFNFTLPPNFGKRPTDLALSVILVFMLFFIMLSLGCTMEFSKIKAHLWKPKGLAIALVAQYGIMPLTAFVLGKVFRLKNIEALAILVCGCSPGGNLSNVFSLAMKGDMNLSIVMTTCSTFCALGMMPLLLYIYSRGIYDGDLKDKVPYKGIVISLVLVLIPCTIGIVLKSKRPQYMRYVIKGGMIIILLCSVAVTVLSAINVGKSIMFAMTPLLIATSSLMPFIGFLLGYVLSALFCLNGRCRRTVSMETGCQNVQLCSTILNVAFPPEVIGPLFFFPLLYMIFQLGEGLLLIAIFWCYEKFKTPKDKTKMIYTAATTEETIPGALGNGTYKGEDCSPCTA", "test": "Drug transporter inhibition, NTCP", "type": "in vitro ADME", "method": "(§1) Briefly, PGP and breast cancer resistance protein inhibition was assessed by measuring the bidirectional transport of substrates across cell monolayers in transwell culture plates. Efflux ratios were represented as (apical-to-basal flux)/(basal-to-apical flux), and efflux ratios were plotted relative to CRV431 concentration to derive IC50 values. Bile salt export pump (BSEP) and multidrug resistance protein (MRP)1 inhibition was assessed by measuring substrate accumulation in membrane vesicles prepared from insect Sf9 cells and recombinantly expressing BSEP and MRP2 (Genomembrane). Inhibition of all other transporters was assessed by measuring substrate accumulation in cells recombinantly expressing the transporter. Known inhibitors of each transporter were used as positive controls for the assays. […] Specific, ATP-dependent uptake was determined by subtracting uptake in negative control vesicles and cells not expressing the transporters, and secondly by subtracting uptake in the absence of ATP in the assays. Specific, ATP-dependent uptake was plotted as a function of CRV431 concentrations and fitted to nonlinear regressions to obtain IC50 values."}, "[1]": {"test": "CRV431 concentrations in blood and liver, mice", "type": "in vivo, mouse", "conditions": "for Liver:Blood [CRV431] Ratio: Mouse", "from_the_text": "Male and female Sprague–Dawley rats and male C57BL/6 mice from the carbon tetrachloride and NASH studies were used to evaluate CRV431 pharmacokinetics and distribution. […] Terminal whole blood and livers were collected and frozen until drug extraction. Liver samples were homogenized in PBS or 1% formic acid (0.1 g–0.4 g liver sample per ml solvent) with bead-based homogenizers (TissueLyser or Beadruptor). […] Liver CRV431 concentrations were normalized to the masses of the liver samples."}, "[2]": {"tested_on": "NASH model in C57BL/6 mice", "test": "Mouse NASH model (streptozotocin plus high-fat diet)", "type": "in vivo", "design": "NAS score / Steatosis score / Inflammation score / Ballooning score: scale not given here", "procedure": "NASH was initiated in 2-day-old C57BL/6J male mice by intraperitoneal injection with 200 μg streptozotocin (S0130; Sigma-Aldrich) to disrupt pancreatic β cells, induce diabetes, and promote adiposity in the liver. Mice were weaned at 3 weeks of age and begun on a high-fat diet with 60%kcal fat (D12492N; Research Diets) for the duration of the studies. Additionally, mice with a regular diet (D12450KN; Research Diets) and without streptozotocin were included as negative controls. CRV431 was dissolved in a self-microemulsifying drug vehicle and then diluted with PBS and administered daily by oral gavage at 50 mg/kg per day. The start time and duration of vehicle and CRV431 treatments varied depending on the study.\nBlood and livers were collected at the end of the NASH and CCl4 studies. In some studies, serum or plasma was isolated from freshly-collected blood, whereas in other studies blood was frozen for later analysis of CRV431 concentration. Livers were immersion-fixed in zinc-formalin and paraffin-embedded for histologic processing. Liver sections were stained with hematoxylin and eosin for assessment of inflammation, ballooning, and steatosis, and with sirius red for assessment of collagen I and III (fibrosis). Sirius red staining was quantified by blinded analysis in one section per liver using ImageJ software. Scoring of steatosis, ballooning, and inflammation (sum of portal and lobular inflammation) in liver sections was based on criteria and training by a board-certified pathologist.\nLiver tumors were quantified in freshly collected livers at sacrifice in one NASH study ending at 30 weeks of age. Liver tumors were counted and their diameters measured with a ruler and classified as small (>0.1 cm diameter, but not exceeding 0.5 cm), medium (0.5–1 cm diameter), or large (>1 cm diameter)."}, "P-gp": {"biological_target": "P-gp (Homo sapiens, UniProt P08183)", "sequence (P08183 whole entry)": "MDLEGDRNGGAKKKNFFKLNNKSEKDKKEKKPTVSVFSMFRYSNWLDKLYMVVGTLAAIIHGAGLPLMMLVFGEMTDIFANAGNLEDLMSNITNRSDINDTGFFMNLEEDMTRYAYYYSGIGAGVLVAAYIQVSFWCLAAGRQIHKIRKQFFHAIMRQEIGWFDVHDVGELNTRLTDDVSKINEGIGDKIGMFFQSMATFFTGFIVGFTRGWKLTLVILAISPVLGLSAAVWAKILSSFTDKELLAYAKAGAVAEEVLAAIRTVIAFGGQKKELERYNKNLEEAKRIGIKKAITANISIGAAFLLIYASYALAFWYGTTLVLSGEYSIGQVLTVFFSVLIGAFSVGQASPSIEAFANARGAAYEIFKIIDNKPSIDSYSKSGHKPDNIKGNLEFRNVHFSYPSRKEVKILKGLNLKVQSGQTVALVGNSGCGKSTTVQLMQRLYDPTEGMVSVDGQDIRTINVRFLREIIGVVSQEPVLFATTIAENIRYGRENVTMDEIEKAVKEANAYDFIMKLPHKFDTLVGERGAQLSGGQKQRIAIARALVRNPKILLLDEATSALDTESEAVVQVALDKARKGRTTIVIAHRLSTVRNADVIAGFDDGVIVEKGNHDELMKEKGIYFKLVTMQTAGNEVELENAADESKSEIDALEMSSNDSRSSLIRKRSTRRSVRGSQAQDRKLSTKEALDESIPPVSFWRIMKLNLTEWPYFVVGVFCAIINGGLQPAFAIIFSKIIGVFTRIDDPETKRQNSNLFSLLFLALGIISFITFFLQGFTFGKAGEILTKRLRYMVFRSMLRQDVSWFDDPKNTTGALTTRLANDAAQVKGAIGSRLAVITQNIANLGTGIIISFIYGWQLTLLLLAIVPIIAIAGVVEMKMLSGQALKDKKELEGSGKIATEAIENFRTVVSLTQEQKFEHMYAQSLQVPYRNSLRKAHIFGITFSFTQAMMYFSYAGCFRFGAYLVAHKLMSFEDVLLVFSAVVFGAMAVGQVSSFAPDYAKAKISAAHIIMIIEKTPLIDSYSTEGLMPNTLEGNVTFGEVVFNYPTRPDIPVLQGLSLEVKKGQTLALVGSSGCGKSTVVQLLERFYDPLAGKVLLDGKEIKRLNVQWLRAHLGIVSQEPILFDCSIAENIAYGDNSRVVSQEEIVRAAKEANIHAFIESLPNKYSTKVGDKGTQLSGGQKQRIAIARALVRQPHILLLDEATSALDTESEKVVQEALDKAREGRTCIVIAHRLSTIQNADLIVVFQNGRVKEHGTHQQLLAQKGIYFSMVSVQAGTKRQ", "method": "as §1"}, "MRP2": {"biological_target": "MRP2 (Homo sapiens, UniProt Q92887)", "sequence (Q92887 whole entry)": "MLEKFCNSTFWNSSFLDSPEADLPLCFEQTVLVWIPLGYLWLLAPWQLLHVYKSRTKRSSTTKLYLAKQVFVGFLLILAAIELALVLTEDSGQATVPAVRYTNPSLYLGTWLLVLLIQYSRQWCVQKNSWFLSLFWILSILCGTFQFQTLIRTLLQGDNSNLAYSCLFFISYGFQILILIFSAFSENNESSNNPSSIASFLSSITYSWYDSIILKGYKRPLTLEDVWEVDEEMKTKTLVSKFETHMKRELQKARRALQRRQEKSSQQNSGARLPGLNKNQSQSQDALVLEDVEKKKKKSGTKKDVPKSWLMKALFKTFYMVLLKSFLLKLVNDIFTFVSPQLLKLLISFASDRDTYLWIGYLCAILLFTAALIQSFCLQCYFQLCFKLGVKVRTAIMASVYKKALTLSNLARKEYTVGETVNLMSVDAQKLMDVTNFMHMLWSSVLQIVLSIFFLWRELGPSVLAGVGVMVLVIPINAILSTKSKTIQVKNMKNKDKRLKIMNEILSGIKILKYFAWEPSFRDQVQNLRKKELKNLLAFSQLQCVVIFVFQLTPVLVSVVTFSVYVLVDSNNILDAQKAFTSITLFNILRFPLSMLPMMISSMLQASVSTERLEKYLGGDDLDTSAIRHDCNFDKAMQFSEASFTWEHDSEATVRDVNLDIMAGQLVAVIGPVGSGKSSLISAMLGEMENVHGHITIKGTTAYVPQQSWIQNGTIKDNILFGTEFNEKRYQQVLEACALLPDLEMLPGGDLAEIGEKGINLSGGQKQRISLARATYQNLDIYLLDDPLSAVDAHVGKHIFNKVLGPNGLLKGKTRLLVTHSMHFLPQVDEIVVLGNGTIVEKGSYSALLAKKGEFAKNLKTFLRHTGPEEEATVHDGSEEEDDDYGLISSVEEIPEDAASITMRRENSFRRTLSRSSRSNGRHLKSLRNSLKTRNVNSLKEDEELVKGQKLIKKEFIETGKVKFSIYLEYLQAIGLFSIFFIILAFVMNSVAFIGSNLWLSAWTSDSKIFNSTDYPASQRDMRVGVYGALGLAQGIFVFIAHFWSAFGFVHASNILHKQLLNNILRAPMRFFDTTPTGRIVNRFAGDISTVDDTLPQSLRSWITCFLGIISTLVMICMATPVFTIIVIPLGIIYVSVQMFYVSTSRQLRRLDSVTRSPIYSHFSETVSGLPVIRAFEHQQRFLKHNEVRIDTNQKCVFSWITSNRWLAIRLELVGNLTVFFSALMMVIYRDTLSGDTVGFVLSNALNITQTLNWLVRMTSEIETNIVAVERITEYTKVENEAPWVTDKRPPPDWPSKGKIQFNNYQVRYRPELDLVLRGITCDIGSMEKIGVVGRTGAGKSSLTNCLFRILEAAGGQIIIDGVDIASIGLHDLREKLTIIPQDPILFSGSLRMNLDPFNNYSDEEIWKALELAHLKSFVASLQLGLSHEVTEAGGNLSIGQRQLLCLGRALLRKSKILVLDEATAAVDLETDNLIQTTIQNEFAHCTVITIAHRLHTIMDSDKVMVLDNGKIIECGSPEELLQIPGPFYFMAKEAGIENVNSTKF", "method": "(§2) Bile salt export pump (BSEP) and multidrug resistance protein (MRP)1 inhibition was assessed by measuring substrate accumulation in membrane vesicles prepared from insect Sf9 cells and recombinantly expressing BSEP and MRP2 (Genomembrane). Inhibition of all other transporters was assessed by measuring substrate accumulation in cells recombinantly expressing the transporter. Known inhibitors of each transporter were used as positive controls for the assays. […] Specific, ATP-dependent uptake was determined by subtracting uptake in negative control vesicles and cells not expressing the transporters, and secondly by subtracting uptake in the absence of ATP in the assays. Specific, ATP-dependent uptake was plotted as a function of CRV431 concentrations and fitted to nonlinear regressions to obtain IC50 values."}, "OATP1B3": {"biological_target": "OATP1B3 (Homo sapiens, UniProt Q9NPD5)", "sequence (Q9NPD5 whole entry)": "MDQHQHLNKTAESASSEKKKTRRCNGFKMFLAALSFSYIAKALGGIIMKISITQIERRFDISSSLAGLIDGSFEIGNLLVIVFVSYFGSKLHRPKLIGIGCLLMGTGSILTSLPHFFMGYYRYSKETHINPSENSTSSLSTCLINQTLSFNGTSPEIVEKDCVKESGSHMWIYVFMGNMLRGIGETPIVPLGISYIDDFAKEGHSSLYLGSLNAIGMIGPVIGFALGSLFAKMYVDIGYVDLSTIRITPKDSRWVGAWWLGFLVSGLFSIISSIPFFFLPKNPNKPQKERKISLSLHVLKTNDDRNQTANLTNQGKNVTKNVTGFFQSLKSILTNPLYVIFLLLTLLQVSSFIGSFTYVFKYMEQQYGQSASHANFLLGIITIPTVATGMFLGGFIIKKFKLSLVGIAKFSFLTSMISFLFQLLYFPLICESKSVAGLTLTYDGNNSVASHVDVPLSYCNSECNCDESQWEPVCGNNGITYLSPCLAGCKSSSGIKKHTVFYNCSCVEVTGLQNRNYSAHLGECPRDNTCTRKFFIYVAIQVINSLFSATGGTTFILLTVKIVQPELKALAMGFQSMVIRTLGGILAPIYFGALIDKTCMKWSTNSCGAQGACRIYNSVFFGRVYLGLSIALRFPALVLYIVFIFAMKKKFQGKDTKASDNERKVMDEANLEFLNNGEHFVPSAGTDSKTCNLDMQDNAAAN", "method": "as §1"}, "BSEP": {"biological_target": "BSEP (Homo sapiens, UniProt O95342)", "test": "Drug transporter inhibition, BSEP", "conditions": "Vesicles", "method": "as §2"}, "OCT2": {"biological_target": "OCT2 (Homo sapiens, UniProt O15244)", "sequence (O15244 whole entry)": "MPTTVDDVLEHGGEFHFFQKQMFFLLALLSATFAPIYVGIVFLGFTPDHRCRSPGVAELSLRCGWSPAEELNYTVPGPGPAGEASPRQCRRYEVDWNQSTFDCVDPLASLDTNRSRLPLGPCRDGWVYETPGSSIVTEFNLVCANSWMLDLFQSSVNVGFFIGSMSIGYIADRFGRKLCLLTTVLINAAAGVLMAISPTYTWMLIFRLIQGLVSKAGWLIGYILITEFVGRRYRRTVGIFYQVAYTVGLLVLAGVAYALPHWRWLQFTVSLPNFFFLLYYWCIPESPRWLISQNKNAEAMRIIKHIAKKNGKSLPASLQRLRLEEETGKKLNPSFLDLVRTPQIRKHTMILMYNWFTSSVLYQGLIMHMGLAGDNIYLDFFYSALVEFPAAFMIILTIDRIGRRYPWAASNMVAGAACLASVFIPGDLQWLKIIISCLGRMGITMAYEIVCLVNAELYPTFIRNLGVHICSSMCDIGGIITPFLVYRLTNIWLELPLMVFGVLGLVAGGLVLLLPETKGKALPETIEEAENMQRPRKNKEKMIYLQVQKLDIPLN", "test": "Drug transporter inhibition, OCT2", "conditions": "OCT2, HEK293", "method": "as §2"}, "[3]": {"test": "Single oral dose pharmacokinetics in rats", "conditions": "single oral dose 10 mg/kg", "from_the_text": "Male and female Sprague–Dawley rats and male C57BL/6 mice from the carbon tetrachloride and NASH studies were used to evaluate CRV431 pharmacokinetics and distribution. […] Terminal whole blood and livers were collected and frozen until drug extraction. Liver samples were homogenized in PBS or 1% formic acid (0.1 g–0.4 g liver sample per ml solvent) with bead-based homogenizers (TissueLyser or Beadruptor). […] Sample and standard compounds were extracted from blood and liver homogenates using a zinc sulfate/methanol precipitation method and quantified by liquid chromatography–electrospray ionization–mass spectrometry, as previously described ([Trepanier et al., 2018]). Liver CRV431 concentrations were normalized to the masses of the liver samples.\nCRV431 pharmacokinetics in rats. […] Whole–blood concentrations of the two compounds were determined at the indicated time points. […] Means and S.D. shown."}, "[4]": {"conditions": "mouse, in vivo, po, 50 mg/kg/day"}, "[5]": {"conditions": "Week 3–14 Treatment, 50 mg/kg per day oral"}, "[6]": {"conditions": "Week 8–14 Treatment, 50 mg/kg per day oral"}, "[7]": {"conditions": "Week 20–30 Treatment, 50 mg/kg per day oral"}}, "note": "pIC50: −log10 of the molar value. Square brackets hold non-standard residues; d marks the D form. Peptide text beside a SMILES is read from it. NMeThr(4R-Me,4-(CH2)6NHAc) = CN[C@H](C(=O)O)[C@H](O)[C@H](C)CCCCCCNC(C)=O; NMeL = CN[C@@H](CC(C)C)C(=O)O; NMeV = CN[C@H](C(=O)O)C(C)C; dNMeA = CN[C@H](C)C(=O)O; Abu = CC[C@H](N)C(=O)O"}
{"compound": "CC[C@@H]1NC(=O)[C@H]([C@H](O)[C@H](C)CCCCCCNC(C)=O)N(C)C(=O)[C@H](C(C)C)N(C)C(=O)[C@H](CC(C)C)N(C)C(=O)[C@H](CC(C)C)N(C)C(=O)[C@@H](C)NC(=O)[C@H](C)NC(=O)[C@H](CC(C)C)N(C)C(=O)[C@H](C(C)C)NC(=O)[C@H](CC(C)C)N(C)C(=O)[C@@H](C)N(C)C1=O", "note": "[CRV431] (cyclo(A[dA][NMeL][NMeL][NMeV][NMeThr(4R-Me,4-(CH2)6NHAc)][Abu][dNMeA][NMeL]V[NMeL]))", "values": [{"measurement": "pIC50", "setting": "recombinant Cyp D (PPIF)", "value": 8.55}, {"measurement": "IC50 Fold Difference", "setting": "recombinant Cyp D (PPIF); CsA IC50 vs CRV431 IC50, PPIF", "value": 3.6}, {"measurement": "CC50", "setting": "six human cell types", "value": 23.6, "unit": "µM"}, {"measurement": "lethality", "setting": "six human cell types; at the highest concentrations tested (up to 80 µM), 3 days", "value": 100, "unit": "%"}, {"measurement": "fold lower activity than CsA toward sodium-dependent taurocholic acid cotransporting polypeptide", "setting": "NTCP", "value": 45, "unit": "fold"}, {"measurement": "pIC50", "setting": "NTCP; NTCP, HEK293", "value": 4.34}, {"measurement": "Liver:Blood [CRV431] Ratio", "setting": "[1]; CCl4, 50 mg/kg per day oral, day 42, 4 hours post-dose", "value": "15.4 ± 10.4"}, {"measurement": "Liver:Blood [CRV431] Ratio", "setting": "[1]; NASH, 50 mg/kg per day oral, day 189, 3 hours post-dose", "value": "11.9 ± 8.5"}, {"measurement": "peak blood levels at which CRV431 efficacy occurred in mice", "setting": "[1]; mouse, in vivo", "value": "1.2 to 1.4", "unit": "µg/mL"}, {"measurement": "Blood", "setting": "[1]; [4]", "value": "1.4 ± 1.5", "unit": "µg/mL"}, {"measurement": "Liver", "setting": "[1]; [4]", "value": "11.6 ± 9.0", "unit": "µg/g"}, {"measurement": "Ballooning score", "setting": "[2]; [5]", "value": "0.9 ± 0.6"}, {"measurement": "Blood glucose", "setting": "[2]; [5]", "value": "319 ± 79"}, {"measurement": "Body weight", "setting": "[2]; [5]", "value": "33.5 ± 5.2 (P < 0.05)"}, {"measurement": "Inflammation score", "setting": "[2]; [5]", "value": "1.5 ± 0.7"}, {"measurement": "Liver weight", "setting": "[2]; [5]", "value": "1.28 ± 0.28"}, {"measurement": "NAS score", "setting": "[2]; [5]", "value": "3.7 ± 2.2 (P < 0.05)"}, {"measurement": "Sirius red %", "setting": "[2]; [5]", "value": "1.96 ± 0.72 (P < 0.05) %"}, {"measurement": "Steatosis score", "setting": "[2]; [5]", "value": "1.3 ± 1.1"}, {"measurement": "Ballooning score", "setting": "[2]; [6]", "value": "1.8 ± 0.5"}, {"measurement": "Blood glucose", "setting": "[2]; [6]", "value": "463 ± 143"}, {"measurement": "Body weight", "setting": "[2]; [6]", "value": "26.1 ± 5.1"}, {"measurement": "Inflammation score", "setting": "[2]; [6]", "value": "2.4 ± 0.7"}, {"measurement": "Liver weight", "setting": "[2]; [6]", "value": "1.35 ± 0.28"}, {"measurement": "NAS score", "setting": "[2]; [6]", "value": "6.1 ± 1.1"}, {"measurement": "Sirius red %", "setting": "[2]; [6]", "value": "1.02 ± 0.48 (P < 0.05) %"}, {"measurement": "Steatosis score", "setting": "[2]; [6]", "value": "2.0 ± 0.5"}, {"measurement": "Blood glucose", "setting": "[2]; [7]", "value": "405 ± 134"}, {"measurement": "Body weight", "setting": "[2]; [7]", "value": "41.6 ± 8.9"}, {"measurement": "Liver weight", "setting": "[2]; [7]", "value": "3.04 ± 1.19 (P < 0.05)"}, {"measurement": "Sirius red %", "setting": "[2]; [7]", "value": "1.62 ± 0.57 (P < 0.05) %"}, {"measurement": "Tumor number", "setting": "[2]; [7]", "value": "4.5 ± 4.4"}, {"measurement": "Tumor score", "setting": "[2]; Week 20–30 Treatment, 50 mg/kg per day oral, 0–7 scale", "value": "2.25 ± 2.0 (P < 0.05)"}, {"measurement": "reduction in the number and size of liver tumors", "setting": "[2]; late, oncogenic stage of the NASH model (abstract)", "value": 50, "unit": "%"}, {"measurement": "fibrosis levels lower after CRV431 treatment compared with vehicle treatment", "setting": "[2]; three NASH model studies, 50 mg/kg per day oral, sirius red", "value": "37%–46%"}, {"measurement": "livers lacking tumors", "setting": "[2]; treatment from weeks 20 to 30", "value": "2 of 10"}, {"measurement": "decrease of tumor burden (score of tumor number and size)", "setting": "[2]; treatment from weeks 20 to 30, vs vehicle", "value": 52, "unit": "%"}, {"measurement": "pIC50", "setting": "P-gp", "value": "< 4.30"}, {"measurement": "pIC50", "setting": "MRP2", "value": 4.68}, {"measurement": "pIC50", "setting": "OATP1B3", "value": 6.22}, {"measurement": "CRV431 Inhibitory Potency vs. CsA", "setting": "BSEP", "value": 3.4, "unit": "× less"}, {"measurement": "CRV431 Inhibitory Potency vs. CsA", "setting": "OCT2", "value": "Same (no inhibition)"}, {"measurement": "pIC50", "setting": "OCT2", "value": "< 4.30"}, {"measurement": "clearance fold difference, CRV431 vs CsA", "setting": "[3]", "value": 3.5, "unit": "fold"}]}
